According to ChEMBL document CHEMBL1240432, “Synthesis and preliminary bioactivity assays of 3,4-dichloro-5-(omega-hydroxyalkylamino)-2(5H)-furanones” (Eur J Med Chem, 2010):

Tests used:
[1] = tested on: Trypanosoma brucei rhodesiense; assay: Antiprotozoal activity against Trypanosoma brucei rhodesiense STIB900 at 4.8 ug/mL by microplate alamar blue assay; format: functional
Trypanosoma cruzi = assay: Antiprotozoal activity against Trypanosoma cruzi Tulahuen C2C4 infected in rat skeletal myoblast at 4.8 ug/ml after 48 hrs; format: functional; conditions: Tulahuen C2C4, 48 h
[2] = tested on: Mycobacterium tuberculosis; assay: Antitubercular activity against Mycobacterium tuberculosis H37Rv by microplate alamar blue assay; format: functional, organism-based
Leishmania donovani = assay: Antiprotozoal activity against Leishmania donovani MHOM/ET/67/L82 at 4.8 ug/m after 72 hrs by fluorimetry; format: functional
Plasmodium falciparum = assay: Antiprotozoal activity against Plasmodium falciparum K1 infected in human erythrocytes at 4.8 ug/m after 72 hrs by [3H]hypoxanthine incorporation; format: functional

Q: With `Nc1nc(N)nc(Nc2ccc([As]3SCC(CO)S3)cc2)n1` (stereo unspecified) [MELARSOPROL] as the molecule, how does the inhibition at 4.8 µg/mL [1] read?
A: The inhibition at 4.8 µg/mL was 98.2%.

Q: `O=C(Cn1ccnc1[N+](=O)[O-])NCc1ccccc1` [BENZNIDAZOLE] was tested. Which inhibition at 4.8 µg/mL (Trypanosoma cruzi) did it give?
A: The inhibition at 4.8 µg/mL was 89.6%.

Q: Which IC50 [2] does the source give for `O=C1OC(NCC(O)CO)C(Cl)=C1Cl` (stereo unspecified) here?
A: The IC50 was > 100 µg/mL.

Q: And the IC90 [2]?
A: The IC90 was > 100 µg/mL.

Q: With `CCCCCCCCCCCCCCCCOP(=O)([O-])OCC[N+](C)(C)C` [MILTEFOSINE] as the molecule, how does the “inhibition (INH)” value (Leishmania donovani) read?
A: The value was 92.5%.

Q: How did the “inhibition (INH)” value (Plasmodium falciparum) turn out when `C[C@@H]1CC[C@H]2[C@@H](C)C(=O)O[C@@H]3O[C@@]4(C)CC[C@@H]1[C@]32OO4` [ARTEMISININ] was run?
A: The value was 100%.
